Experimental data reported in patent US20230025807A1 (priority 2019, published 2023).
pIC50: −log10 of the molar value. Where a name gives a salt, the structure may show the parent alone.

Target: T1, Human CD38 (Homo sapiens, UniProt P28907)
T1 construct: purchased BPS Bioscience 79287
T1 sequence (P28907 1-300): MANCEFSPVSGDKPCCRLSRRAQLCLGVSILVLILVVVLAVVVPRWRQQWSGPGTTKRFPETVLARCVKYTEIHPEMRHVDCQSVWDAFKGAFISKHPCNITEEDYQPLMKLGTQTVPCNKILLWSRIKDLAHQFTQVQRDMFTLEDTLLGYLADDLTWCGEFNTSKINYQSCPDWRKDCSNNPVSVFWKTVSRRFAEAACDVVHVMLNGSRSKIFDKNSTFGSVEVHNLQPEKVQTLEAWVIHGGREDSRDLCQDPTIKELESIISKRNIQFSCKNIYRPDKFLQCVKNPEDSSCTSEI
Assay: biochemical
Details: not given
Description: CD38 hydrolase buffer (4×) was thawed on ice and 1×CD38 hydrolase buffer was prepared by diluting 4×CD38 hydrolase buffer with water. CD38 hydrolase enzyme was diluted to […] with 1×CD38 hydrolase buffer (10 ng/well). Master mix was prepared by mixing equal volumes of water and CD38 hydrolase buffer (4×) and 10 μl of the mix was added to all the wells. Following master mix addition, 10 μl of the inhibitors and 20 μl of CD38 hydrolase enzyme were added to the wells. For wells designated blank, 10 μl and 20 μl of 1×CD38 hydrolase buffer was added respectively in place of CD38 enzyme and inhibitors. The plate was covered and incubated 30 min at room temperature with slow shaking at 400 rpm. After 30 min incubation, the plate was removed and 10 μl of diluted ε-NAD substrate was added to all the wells. The plate is incubated for 10 min, spun at 1200 rpm for 30 secs to remove bubbles and read in Tecan Spark using a fluorometer setting of excitation 300 nm and emission 410 nm. The reading for the blank was subtracted from all the values. IC50 for the test compounds were determined by using Graphpad prism software v7.0.

Compound | pIC50
COCCO[C@H]1CC[C@H](NC(=O)c2cc(-c3cncs3)cc3[nH]ccc23)C1 (racemic) [Example 34, N-(Trans-3-(2-methoxyethoxy)cyclopentyl)-6-(thiazol-5-yl)-1H-indole-4-carboxamide] | 6.58
COCCO[C@H]1CC[C@H](NC(=O)c2cc(-n3cccn3)cc3cc[nH]c23)CC1 [Example 2, N-((1r,4r)-4-(2-methoxyethoxy)cyclohexyl)-5-(1H-pyrazol-1-yl)-1H-indole-7-carboxamide] | < 4.00
COCCO[C@H]1CC[C@H](NC(=O)c2cc(-c3ncc[nH]3)cc3cc[nH]c23)CC1 [Example 6, 5-(1H-imidazol-2-yl)-N-((1r,4r)-4-(2-methoxyethoxy)cyclohexyl)-1H-indole-7-carboxamide] | < 4.00
COCCO[C@H]1CC[C@H](NC(=O)c2cc(-n3ccnc3)cc3c(C(=O)O)c[nH]c23)CC1 [Example 11, 5-(1H-imidazol-1-yl)-7-(((1r,4r)-4-(2-methoxyethoxy)cyclohexyl)carbamoyl)-1H-indole-3-carboxylic acid] | 6.24
COCCO[C@H]1CC[C@H](NC(=O)c2cc(-n3ccnc3)cc3c(C=O)c[nH]c23)CC1 [Example 15, 3-formyl-5-(1H-imidazol-1-yl)-N-((1r,4r)-4-(2-methoxyethoxy)cyclohexyl)-1H-indole-7-carboxamide] | 4.74
COCCO[C@H]1CC[C@H](NC(=O)c2cc(-n3ccnc3)cc3c(CN(C)C)c[nH]c23)CC1 [Example 16, 3-((dimethylamino)methyl)-5-(1H-imidazol-1-yl)-N-((1r,4r)-4-(2-methoxyethoxy)cyclohexyl)-1H-indole-7-carboxamide] | 6.10
COCCO[C@H]1CC[C@H](NC(=O)c2cc(-n3ccnc3)cc3c(CN)c[nH]c23)CC1 [Example 17, 3-(aminomethyl)-5-(1H-imidazol-1-yl)-N-((1r,4r)-4-(2-methoxyethoxy)cyclohexyl)-1H-indole-7-carboxamide] | 6.05
COCCO[C@H]1CC[C@H](NC(=O)c2cc(-c3cncs3)cc3c(C#N)c[nH]c23)CC1 [Example 20, 3-cyano-N-((1r,4r)-4-(2-methoxyethoxy)cyclohexyl)-5-(thiazol-5-yl)-1H-indole-7-carboxamide] | 7.72
COCCO[C@H]1CC[C@H](NC(=O)c2cc(-n3ccnc3)cc3c(I)c[nH]c23)CC1 [Example 22, 5-(1H-imidazol-1-yl)-3-iodo-N-((1r,4r)-4-(2-methoxyethoxy)cyclohexyl)-1H-indole-7-carboxamide] | 6.77
O=C(NC1CCS(=O)(=O)CC1)c1cc(-c2cncs2)cc2[nH]ccc12 [Example 24, N-(1,1-dioxidotetrahydro-2H-thiopyran-4-yl)-6-(thiazol-5-yl)-1H-indole-4-carboxamide] | 6.70
O=C(NCc1c(F)cccc1C(F)(F)F)c1cc(-c2cncs2)cc2[nH]ccc12 [Example 25, N-(2-fluoro-6-(trifluoromethyl)benzyl)-6-(thiazol-5-yl)-1H-indole-4-carboxamide] | 7.11
CS(=O)(=O)CCNC(=O)c1cc(-c2cncs2)cc2[nH]ccc12 [Example 26, N-(2-(methylsulfonyl)ethyl)-6-(thiazol-5-yl)-1H-indole-4-carboxamide] | 6.00
O=C(NCC1CCOCC1)c1cc(-c2cncs2)cc2[nH]ccc12 [Example 27, N-((tetrahydro-2H-pyran-4-yl)methyl)-6-(thiazol-5-yl)-1H-indole-4-carboxamide] | 5.43
O=C(NC12CC3CC(CC(O)(C3)C1)C2)c1cc(-c2cncs2)cc2[nH]ccc12 [Example 28, N-((1r,3s,5R,7S)-3-hydroxyadamantan-1-yl)-6-(thiazol-5-yl)-1H-indole-4-carboxamide] | 6.28
CC(C)(O)[C@H]1CC[C@H](NC(=O)c2cc(-c3cncs3)cc3[nH]ccc23)CC1 [Example 29, N-((1r,4r)-4-(2-hydroxypropan-2-yl)cyclohexyl)-6-(thiazol-5-yl)-1H-indole-4-carboxamide] | 6.91
O=C(N[C@@H]1CC[C@@H](O)C1)c1cc(-c2cncs2)cc2[nH]ccc12 [Example 31, N-((1R,3R)-3-hydroxycyclopentyl)-6-(thiazol-5-yl)-1H-indole-4-carboxamide] | 6.41
COCCO[C@H]1C[C@@H](NC(=O)c2cc(-c3cncs3)cc3[nH]ccc23)C1 [Example 32, N-((1s,3s)-3-(2-methoxyethoxy)cyclobutyl)-6-(thiazol-5-yl)-1H-indole-4-carboxamide] | 5.48

Compound | pIC50
O=C(NCc1ccc(N2CCOCC2)cc1)c1cc(-c2cncs2)cc2[nH]ccc12 [Example 33, N-(4-morpholinobenzyl)-6-(thiazol-5-yl)-1H-indole-4-carboxamide] | < 5.00
O=C(NC1CCNCC1)c1cc(-c2cncs2)cc2[nH]ccc12 [Example 35, N-(piperidin-4-yl)-6-(thiazol-5-yl)-1H-indole-4-carboxamide hydrochloride] | 5.11
CC1(O)CC(NC(=O)c2cc(-c3cncs3)cc3[nH]ccc23)C1 (stereo not drawn) [Example 36, N-(3-hydroxy-3-methylcyclobutyl)-6-(thiazol-5-yl)-1H-indole-4-carboxamide] | 5.82
CC(NC(=O)c1cc(-c2cncs2)cc2[nH]ccc12)c1ccccc1F (stereo not drawn) [Example 39, N-(1-(2-fluorophenyl)ethyl)-6-(thiazol-5-yl)-1H-indole-4-carboxamide] | 6.71
C[C@H]1CCCC[C@H]1NC(=O)c1cc(-c2cncs2)cc2[nH]ccc12 [Example 40, N-((1R,2S)-2-methylcyclohexyl)-6-(thiazol-5-yl)-1H-indole-4-carboxamide] | 7.11
COCC(C)(C)NC(=O)c1cc(-c2cncs2)cc2[nH]ccc12 [Example 42, N-(1-methoxy-2-methylpropan-2-yl)-6-(thiazol-5-yl)-1H-indole-4-carboxamide] | 5.44
CC(C)(O)CNC(=O)c1cc(-c2cncs2)cc2[nH]ccc12 [Example 43, N-(2-hydroxy-2-methylpropyl)-6-(thiazol-5-yl)-1H-indole-4-carboxamide] | 5.29
O=C(NC12CC3CC(CC(C3)C1)C2)c1cc(-c2cncs2)cc2[nH]ccc12 [Example 44, N-(adamantan-1-yl)-6-(thiazol-5-yl)-1H-indole-4-carboxamide] | 6.41
O=C(NC1CCOCC1)c1cc(-c2cncs2)cc2[nH]ccc12 [Example 45, N-(tetrahydro-2H-pyran-4-yl)-6-(thiazol-5-yl)-1H-indole-4-carboxamide] | 6.18
O=C(N[C@H]1C[C@H](O)C1)c1cc(-c2cncs2)cc2[nH]ccc12 [Example 46, N-((1r,3r)-3-hydroxycyclobutyl)-6-(thiazol-5-yl)-1H-indole-4-carboxamide] | 6.17
O=C(NC1CCCCC1)c1cc(-c2cncs2)cc2[nH]ccc12 [Example 47, N-cyclohexyl-6-(thiazol-5-yl)-1H-indole-4-carboxamide] | 6.86
COCCO[C@H]1CC[C@H](NC(=O)c2cc(-c3cncs3)cc3c2ccn3CC2COC2)CC1 [Example 50, N-((1r,4r)-4-(2-methoxyethoxy)cyclohexyl)-1-(oxetan-3-ylmethyl)-6-(thiazol-5-yl)-1H-indole-4-carboxamide] | 6.30
COCCO[C@H]1CC[C@H](NC(=O)c2cc(-c3cncs3)cc3c2ccn3C(C)C)CC1 [Example 52, 1-isopropyl-N-((1r,4r)-4-(2-methoxyethoxy)cyclohexyl)-6-(thiazol-5-yl)-1H-indole-4-carboxamide] | 5.85
COCCO[C@H]1CC[C@H](NC(=O)c2cc(-c3cncs3)cc3c2ccn3CC(C)(C)O)CC1 [Example 53, 1-(2-hydroxy-2-methylpropyl)-N-((1r,4r)-4-(2-methoxyethoxy)cyclohexyl)-6-(thiazol-5-yl)-1H-indole-4-carboxamide] | 5.52
COCCO[C@H]1CC[C@H](NC(=O)c2cc(-n3ccnc3)cc3ccn(C)c23)CC1 [Example 54, 5-(1H-imidazol-1-yl)-N-((1r,4r)-4-(2-methoxyethoxy)cyclohexyl)-1-methyl-1H-indole-7-carboxamide] | 6.43
COCCO[C@H]1CC[C@H](NC(=O)c2cc(-n3ccnc3)cc3[nH]cc(C#N)c23)CC1 [Example 56, 3-cyano-6-(1H-imidazol-1-yl)-N-((1r,4r)-4-(2-methoxyethoxy)cyclohexyl)-1H-indole-4-carboxamide] | 8.01

Same assay, conditions: 30 min pre-incubation at room temperature, ε-NAD substrate 10 min, excitation 300 nm / emission 410 nm; read-out: hCD38 IC50

Compound | pIC50
COCCO[C@H]1C[C@H](NC(=O)c2cc(-c3cncs3)cc3[nH]ccc23)C1 [Example 30, N-((1r,3r)-3-(2-methoxyethoxy)cyclobutyl)-6-(thiazol-5-yl)-1H-indole-4-carboxamide] | 6.12
COCCCO[C@H]1CC[C@H](NC(=O)c2cc(-c3cncs3)cc3[nH]ccc23)CC1 [Example 37, N-((1r,4r)-4-(3-methoxypropoxy)cyclohexyl)-6-(thiazol-5-yl)-1H-indole-4-carboxamide] | 7.20
O=C(N[C@H]1CC[C@H](O)CC1)c1cc(-c2cncs2)cc2[nH]ccc12 [Example 41, N-((1r,4r)-4-hydroxycyclohexyl)-6-(thiazol-5-yl)-1H-indole-4-carboxamide] | 7.43
